# Laboratory results as given in patent US6936585B2, “Corticotropin releasing factor 2 receptor agonists” (priority 2002, dated 2005).
# Read-outs that look alike come from different tables or passages of the source. Ends that are not written are not given here. Peptide text beside a SMILES is read from it.
# How the values were obtained:
# CRF2R = target: T1, CRF2R (Homo sapiens, UniProt Q13324); test: CRF2R agonist activation (EC50 / Emax), called comparative CRF binding; assay type: cell-based
# T1 sequence (Q13324 1-411): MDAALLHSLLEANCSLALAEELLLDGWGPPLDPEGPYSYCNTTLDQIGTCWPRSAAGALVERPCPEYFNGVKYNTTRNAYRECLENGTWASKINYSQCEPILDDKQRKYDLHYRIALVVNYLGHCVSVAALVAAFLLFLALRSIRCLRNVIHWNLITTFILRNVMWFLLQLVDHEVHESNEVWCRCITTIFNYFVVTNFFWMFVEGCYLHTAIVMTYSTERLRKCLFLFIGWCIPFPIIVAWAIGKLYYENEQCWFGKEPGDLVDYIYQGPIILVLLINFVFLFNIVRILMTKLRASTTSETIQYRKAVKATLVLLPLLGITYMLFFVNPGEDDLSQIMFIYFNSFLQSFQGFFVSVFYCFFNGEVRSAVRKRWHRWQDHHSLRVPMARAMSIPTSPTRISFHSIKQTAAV
# How it was run: (§1)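 Agonism at each human CRF receptor subtype is inferred from increased cAMP relative to vehicle, using cells expressing that subtype and either lysate cAMP measurement or a cAMP response element reporter.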
# CRF1R = target: T2, CRF1R (Homo sapiens, UniProt P34998); test: CRF1R agonist activation (EC50 / Emax), called comparative CRF binding; assay type: cell-based
# T2 sequence (P34998 24-415): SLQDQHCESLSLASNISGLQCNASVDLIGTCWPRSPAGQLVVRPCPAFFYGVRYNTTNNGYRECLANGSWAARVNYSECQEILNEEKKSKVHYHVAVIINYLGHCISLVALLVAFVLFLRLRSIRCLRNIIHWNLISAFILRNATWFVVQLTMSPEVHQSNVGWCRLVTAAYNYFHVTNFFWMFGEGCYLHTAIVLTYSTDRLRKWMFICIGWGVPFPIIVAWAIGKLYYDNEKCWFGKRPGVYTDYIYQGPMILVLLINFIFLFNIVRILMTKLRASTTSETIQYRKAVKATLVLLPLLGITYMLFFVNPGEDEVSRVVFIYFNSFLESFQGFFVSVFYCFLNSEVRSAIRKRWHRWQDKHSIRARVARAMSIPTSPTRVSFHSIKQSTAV
# How it was run: as §1
Compound,Emax (CRF2R; read-out: CRF2R Emax) [%],Emax (CRF1R; read-out: CRF1R Emax) [%],also measured
"CC[C@H](C)[C@H](NC(=O)[C@H](CCC(N)=O)NC(=O)[C@H](C)NC(=O)[C@H](CCSC)NC(=O)[C@H](CC(C)C)NC(=O)[C@H](Cc1c[nH]cn1)NC(=O)[C@H](C)NC(=O)[C@H](CC(N)=O)NC(=O)[C@H](C)NC(=O)[C@H](C)NC(=O)[C@H](C)NC(=O)[C@H](CCC(N)=O)NC(=O)[C@H](C)NC(=O)[C@H](CCCNC(=N)N)NC(=O)[C@H](CC(C)C)NC(=O)[C@H](CC(N)=O)NC(=O)[C@H](CCCCN)NC(=O)[C@H](C)NC(=O)[C@H](CCCCN)NC(=O)[C@H](C)NC(=O)[C@@H](NC(=O)[C@H](CC(N)=O)NC(=O)[C@H](Cc1ccccc1)NC(=O)[C@H](CC(C)C)NC(=O)[C@H](CC(C)C)NC(=O)[C@H](CC(N)=O)NC(=O)[C@H](CCSC)NC(=O)[C@@H](NC(=O)[C@H](CC(N)=O)NC(=O)[C@@H](NC(=O)[C@@H]1CCCN1C(=O)[C@@H](NC(=O)[C@H](CC(=O)O)NC(=O)[C@H](CC(C)C)NC(=O)[C@H](CO)NC(=O)[C@H](CC(C)C)NC(=O)[C@@H](NC(=O)[C@H](Cc1ccccc1)NC(=O)[C@H](CCCCN)NC(=O)[C@@H](N)[C@@H](C)O)[C@@H](C)O)C(C)C)[C@@H](C)O)[C@@H](C)CC)[C@@H](C)CC)C(N)=O [hUroIII, human urocortin III, reference compound] (H-TKFTLSLDVPTNIMNLLFNIAKAKNLRAQAAANAHLMAQI-NH2)",,,"Emax (CRF2R; Emax, read-out: CRF2R (Emax %)): 60%; Emax (CRF1R; Emax, read-out: CRF1R (Emax %)): 10.2%"
"CC[C@H](C)[C@H](NC(=O)[C@H](CC(=O)O)NC(=O)[C@H](CC(C)C)NC(=O)[C@H](CC(C)C)NC(=O)[C@H](CCCCN)NC(=O)[C@H](CCCNC(=N)N)NC(=O)[C@H](CC(N)=O)NC(=O)[C@H](CO)NC(=O)[C@H](Cc1c[nH]cn1)NC(=O)[C@H](C)NC(=O)[C@H](CCC(N)=O)NC(=O)[C@H](CCC(N)=O)NC(=O)[C@H](C)NC(=O)[C@H](CC(C)C)NC(=O)[C@H](CCC(N)=O)NC(=O)[C@H](CC(=O)O)NC(=O)[C@H](C)NC(=O)[C@H](CCCCN)NC(=O)[C@@H](NC(=O)[C@H](CCSC)NC(=O)[C@H](CCC(=O)O)NC(=O)[C@H](CC(C)C)NC(=O)[C@@H](NC(=O)[C@H](CCC(=O)O)NC(=O)[C@H](CCCNC(=N)N)NC(=O)[C@H](CC(C)C)NC(=O)[C@H](CC(C)C)NC(=O)[C@H](Cc1c[nH]cn1)NC(=O)[C@H](Cc1ccccc1)NC(=O)[C@@H](NC(=O)[C@H](CC(C)C)NC(=O)[C@H](CC(=O)O)NC(=O)[C@H](CC(C)C)NC(=O)[C@H](CO)NC(=O)[C@@H](NC(=O)[C@@H]1CCCN1C(=O)[C@@H]1CCCN1C(=O)[C@H](CCC(=O)O)NC(=O)[C@H](CCC(N)=O)NC(=O)[C@@H](N)CO)[C@@H](C)CC)[C@@H](C)O)C(C)C)[C@@H](C)O)C(=O)N[C@@H](C)C(N)=O [oCRF, sheep corticotropin releasing factor, reference compound]",,,"EC50 (CRF2R): > 100 nM; Emax (CRF2R; Emax, read-out: CRF2R (Emax %)): 33%; EC50 (CRF1R): 27.4 nM; Emax (CRF1R; Emax, read-out: CRF1R (Emax %)): 98%"
HHHHHHIVLSLDVPIGLLQILLEQARARAAREQATTNARILARN-NH2 [compound 296],65,4,
NDDPPISIDLPFFLLRNMIEMARIENEREQAGLNAKYLAEV-NH2 [compound 264],66.3,100,
NDDPPISIDLPFHLLRNMIEMARIENEREQAGLNAKYLAEV-NH2 [compound 262],92.2,100,
NDDPPISIDLPFLLLRNMIEMARIENEREQAGLNAKYLAEV-NH2 [compound 260],89.3,89.7,EC50 (CRF2R; read-out: CRF2R EC50): ≥ 100 nM; EC50 (CRF1R; read-out: CRF1R EC50): 834 nM
NDDPPISIDLPFQLLRNMIEMARIENEREQAGLNAKYLAEV-NH2 [compound 258],49.3,23.6,
NDDPPISIDLPFYLLRNMIEMARIENEREQAGLNAKYLAEV-NH2 [compound 261],95.3,100,
NDDPPISIDLPLFLLRNMIEMARIENEREQAGLNAKYLAEV-NH2 [compound 257],72.6,83.5,
NDDPPISIDLPLHLLRNMIEMARIENEREQAGLNAKYLAEV-NH2 [compound 259],65,83.6,
NDDPPISIDLPLILLRNMIEMARIENEREQAGLNAKYLAEV-NH2 [compound 269],77.3,44.3,
NDDPPISIDLPLLLLRNMIEMARIENEREQAGLNAKYLAEV-NH2 [compound 268],59,14.2,
NDDPPISIDLPLQLLRNMIEMARIENEREQAGLNAKYLAEV-NH2 [compound 270],19.3,7.85,
NDDPPISIDLPLYLLRNMIEMARIENEREQAGLNAKYLAEV-NH2 [compound 271],69,80.7,EC50 (CRF2R; read-out: CRF2R EC50): 48.1 nM; EC50 (CRF1R; read-out: CRF1R EC50): 815 nM
NDDPPISIDLPQYLLRNMIEMARIENEREQAGLNAKYLAEV-NH2 [compound 265],23.4,9.3,
NDDPPISIDLPTYLLRNMIEMARIENEREQAGLNAKYLAEV-NH2 [compound 266],19.4,4.45,
NDDPPISIDLPYYLLRNMIEMARIENEREQAGLNAKYLAEV-NH2 [compound 267],44.2,22.8,
SEEPPISLDLTFHLLREVLEMARAEQLAQQAHTNARILARV-NH2 [compound 161],88,77,

Compound,Emax (CRF2R; read-out: CRF2R Emax) [%],Emax (CRF1R; read-out: CRF1R Emax) [%],also measured
SEEPPISLDVPIGLLQEVLEMARAEQLAQQAHSNRKLMEII-NH2 [compound 162],7,11,
SQEIVLSLDVPIGLLREVLEMTKADQLAQQAHSNRKLLDIA-NH2 [compound 7],,,EC50 (CRF2R; read-out: CRF2R EC50): ≥ 100 nM; EC50 (CRF1R; read-out: CRF1R EC50): ≥ 100 nM
SQEIVLSLDVPIGLLREVLEMTKADQLAQQAHSNRKLLDIA-NH2 [compound 152],19,4,
SQEPPISLDLPFELLREVLEMTKADQLAQQAHSNRKLLDIA-NH2 [compound 97],7.6,4.25,
SQEPPISLDLPFGLLREVLEMTKADQLAQQAHSNRKLLDIA-NH2 [compound 103],4.85,5.75,
SQEPPISLDLPFQLLREVLEMTKADQLAQQAHSNRKLLDIA-NH2 [compound 91],7.1,4,
SQEPPISLDLPFYLLREVLEMTKADQLAQQAHSNRKLLDIA-NH2 [compound 96],12.5,16.3,
SQEPPISLDLPIGLLREVLEMTKADQLAQQAHSNRKLLDIA-NH2 [compound 93],6.4,5,
SQEPPISLDLPIHLLREVLEMTKADQLAQQAHSNRKLLDIA-NH2 [compound 94],6.15,7.3,
SQEPPISLDLPIQLLREVLEMTKADQLAQQAHSNRKLLDIA-NH2 [compound 100],9.85,6.25,
SQEPPISLDLPLGLLREVLEMTKADQLAQQAHSNRKLLDIA-NH2 [compound 90],12.2,4,
SQEPPISLDLPLHLLREVLEMTKADQLAQQAHSNRKLLDIA-NH2 [compound 102],13.5,7.8,
SQEPPISLDLPLQLLREVLEMTKADQLAQQAHSNRKLLDIA-NH2 [compound 95],8.25,5.55,
SQEPPISLDLPLYLLREVLEMTKADQLAQQAHSNRKLLDIA-NH2 [compound 101],6.95,7.35,
SQEPPISLDLPTELLREVLEMTKADQLAQQAHSNRKIIDIA-NH2 [compound 92],15.8,4.6,
SQEPPISLDLPTGLLREVLEMTKADQLAQQAHSNRKLLDIA-NH2 [compound 98],5.5,4,
SQEPPISLDLPTHLLREVLEMTKADQLAQQAHSNRKLLDIA-NH2 [compound 99],4.35,4.35,
SQEPPISLDLPTQLLREVLEMTKADQLAQQAHSNRKLLDIA-NH2 [compound 105],9.15,5.2,
